# Reference: patent EP3494998A1, “GLYCOSYLATED PSMA INHIBITORS FOR IMAGING AND ENDORADIOTHERAPY” (Technische Universität München, priority 2017, dated 2019)
# Where two headings read alike, the source gives them in different places.
# Experiments:
# LNCaP cells [1] = assay: cell surface binding and internalization in LNCaP cells; type: cell-based, human; conditions: for Internalization [%]: normalized to reference ([125I]I-BA)KuE, corrected for unspecific binding, c = 0.2 nM for 68Ga and 0.5 nM for 177Lu compounds, 37°C, 1 h, 125,000 cells/well, mean ± SD (n = 3); for internalized fraction of total applied activity: 60 min incubation, not normalized, 0.2 nM (68Ga) or 0.5 nM (177Lu)
# Procedure: One day (24h ± 2h) prior to all experiments with LNCaP cells, the cultivated cells were harvested using a mixture of trypsin/ethylendiaminetetraacetate (0.05%/ 0.02%) and phosphate buffered saline and centrifuged. After centrifugation, the supernatant was disposed and the cell pellet resuspended in culture medium. Afterwards, cells were counted with a hemocytometer (Neubauer) and seeded in 24-well plates. […]
# To differentiate between the cell surface bound and internalized fraction, a PMPA-wash (1.0 µM) was performed to remove the specifically bound radioligand.
# [2] = biological target: human serum albumin (HSA) (Homo sapiens, UniProt P02768); assay: HSA binding by HPLC on a column with immobilized human albumin; conditions: natGa- and natLu-labeled inhibitors; HPLC retention time with non-linear regression calibration on nine reference substances
# human serum albumin (HSA), sequence (P02768 25-609): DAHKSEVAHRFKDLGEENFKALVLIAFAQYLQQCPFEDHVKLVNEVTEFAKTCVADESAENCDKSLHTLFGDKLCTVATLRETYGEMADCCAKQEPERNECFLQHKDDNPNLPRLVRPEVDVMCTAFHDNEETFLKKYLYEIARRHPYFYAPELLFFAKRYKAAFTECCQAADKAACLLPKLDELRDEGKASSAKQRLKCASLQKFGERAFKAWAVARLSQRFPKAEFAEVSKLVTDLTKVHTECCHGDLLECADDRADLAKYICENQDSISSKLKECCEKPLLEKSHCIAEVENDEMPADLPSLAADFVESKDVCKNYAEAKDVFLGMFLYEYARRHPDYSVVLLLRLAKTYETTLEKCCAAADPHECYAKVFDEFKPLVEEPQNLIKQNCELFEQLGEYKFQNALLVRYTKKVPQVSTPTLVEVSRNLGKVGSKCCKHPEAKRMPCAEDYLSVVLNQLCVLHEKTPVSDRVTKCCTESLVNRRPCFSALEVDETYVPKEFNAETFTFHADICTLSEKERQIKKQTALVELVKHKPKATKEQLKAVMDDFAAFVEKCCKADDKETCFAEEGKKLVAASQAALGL
# From the text: The Fmoc-(9-fluorenylmethoxycarbonyl-) and all other protected amino acid analogs were purchased from Bachem (Bubendorf, Switzerland) or Iris Biotech (Marktredwitz, Germany). Dr. Schottelius from the laboratory of Prof. […] The tritylchloride polystyrene (TCP) resin was obtained from PepChem (Tubingen, Germany). Chematech (Dijon, France) delivered the chelator DOTAGA-anhydride. All necessary solvents and other organic reagents were purchased from either Alfa Aesar (Karlsruhe, Germany), Sigma-Aldrich (Munich, Germany) or VWR (Darmstadt, Germany). Solid phase synthesis of the peptides was carried out by manual operation using an Intelli-Mixer syringe shaker (Neolab, Heidelberg, Germany). […] Analysis of the peptides was performed by applying different gradients of 0.1% (v/v) trifluoroacetic acid (TFA) in H2O (solvent A) and 0.1% TFA (v/v) in acetonitrile (MeCN) (solvent B) with a constant flow of 1 mL/min (specific gradients are cited in the text). […] Human serum albumin (HSA) binding was determined using a Chiralpak HSA 50 x 3 mm 5µm Analytical Column connected to a Chiralpak HSA 10 x 3 mm 5µm Guard Cartridge (Daicel Chemical Industries) purchased from Chiral Technologies Europe (France). Non-linear regression for the HSA binding was performed using OriginPro 2016G. Both retention times tR as well as the capacity factors K' are cited in the text. Preparative RP-HPLC of the peptides was achieved on a Shimadzu HPLC system using a Multospher 100 RP 18-5 (250 x 20 mm) column (CS GmbH, Langerwehe, Germany) with a constant flow of 5 mL/min. […] Radioactivity was detected through connection of the outlet of the UV-photometer to a Nal(TI) well-type scintillation counter from EG&G Ortec (Munich, Germany). […] ESI-mass spectra were acquired on an expression^L CMS mass spectrometer (Advion Ltd., Harlow, UK) and on a Varian 500-MS IT mass spectrometer (Agilent Technologies, Santa Clara, USA). For the HSA binding experiment a Chiralpak HSA 50 x 3 mm 5µm Analytical Column, (Daicel Chemical Industries, LTD) connected to a Chiralpak HSA 10 x 3 mm 5µm Guard Cartridge (Daicel Chemical Industries; Chiral Technologies Europe) was used. Blood samples were collected from volunteers.
# The mobile phase consisted of a binary gradient system with a constant total flow rate of 0.5mL/min. Mobile phase A was a 50 mM pH 6.9 ammonium acetate solution, mobile phase B was 2-Propanol (HPLC grade, VWR, Germany). The gradient, of mobile phase A was 100% from 0 to 3 min and from 3 min to the end of each run, mobile phase B was set 20%. […] Afterwards, the actual PSMA inhibitors with unknown HSA binding were measured. More details are found in the supplementary info.
# To diminish the influence of temperature and small pH fluctuations of the NH4OAc buffer on binding (retention time), a set of nine substances with known HSA binding coefficients was used to establish a calibration line by non-linear regression (log retention time vs. log HSA [%] binding).
# PSMA [3] = biological target: T1, PSMA (Homo sapiens, UniProt Q04609); conditions: PSMA I&T (18), values taken from a previous publication (Weineisen 2014), same binding assay; cited from earlier work
# T1 construct: PSMA-positive LNCAP cells (200265; Cell Lines Service GmbH) were cultivated; host or cells: LNCaP human prostate cancer cells
# T1 sequence (Q04609 whole entry): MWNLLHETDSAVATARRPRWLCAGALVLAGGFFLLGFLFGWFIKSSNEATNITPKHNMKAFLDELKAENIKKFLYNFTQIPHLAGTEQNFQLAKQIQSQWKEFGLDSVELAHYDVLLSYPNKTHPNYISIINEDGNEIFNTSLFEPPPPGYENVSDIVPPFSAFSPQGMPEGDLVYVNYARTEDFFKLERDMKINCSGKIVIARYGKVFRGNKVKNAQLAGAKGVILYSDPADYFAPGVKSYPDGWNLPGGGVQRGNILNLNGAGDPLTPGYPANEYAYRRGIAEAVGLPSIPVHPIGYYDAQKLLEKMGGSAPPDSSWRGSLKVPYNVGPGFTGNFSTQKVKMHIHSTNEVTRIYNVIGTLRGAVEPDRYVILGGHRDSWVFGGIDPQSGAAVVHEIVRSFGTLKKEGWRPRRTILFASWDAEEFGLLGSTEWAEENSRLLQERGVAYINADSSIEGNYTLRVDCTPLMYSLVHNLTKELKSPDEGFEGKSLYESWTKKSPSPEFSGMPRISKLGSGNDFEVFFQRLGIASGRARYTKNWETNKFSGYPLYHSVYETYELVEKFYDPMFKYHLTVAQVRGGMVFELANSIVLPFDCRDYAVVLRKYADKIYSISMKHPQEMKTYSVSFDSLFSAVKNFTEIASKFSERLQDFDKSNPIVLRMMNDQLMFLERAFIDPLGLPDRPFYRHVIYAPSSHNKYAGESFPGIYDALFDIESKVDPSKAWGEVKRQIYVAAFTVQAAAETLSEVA
# LNCaP cells [4] = conditions: PSMA I&T (18), data from a previous publication (Weineisen 2014), normalized to ([125I]I-BA)KuE, 60 min, cited from earlier work
# LNCaP tumor xenografts = assay: µPET imaging in mice bearing LNCaP tumor xenografts; conditions: 85 min p.i.; dynamic µPET; LNCaP xenograft
# Procedure: For the tumor model, LNCaP cells (approx. 10^7 cells) were suspended 1:1 in serum-free DMEM-F12 medium and Matrigel (BD Biosciences, Germany) and inoculated onto the right shoulder of male, 6 to 8 weeks old CB-17 SCID mice (Charles River Laboratories, Sulzfeld, Germany). Animals were used after the tumor size reached 4 to 8 mm in diameter for experiments.
# Imaging experiments were conducted using a Siemens Inveon small animal PET and data analyzed by the associated Inveon Research Workplace software. […] Dynamic imaging was carried out after on-bed injection for 90 min. The static blockade image was obtained, after 1 h p.i. with 15 min acquisition time. Blockade was done by coinjection of 8mg/kg of PMPA. All images were reconstructed using an OSEM3D algorithm without scanner and attenuation correction.
# Over a period of 90 min, comparative dynamic µPET scans were performed with ^68Ga-13 and ^68Ga-18 in CB-17 SCID mice bearing LNCaP tumor xenografts to assess the kinetic tissue distribution.
# PSMA [5] = biological target: T1, PSMA; assay: competitive binding assay (IC50) on LNCaP cells with ([125I]I-BA)KuE as radioligand; conditions: LNCaP cells (150,000/well); ([125I]I-BA)KuE (c = 0.2 nM) as radioligand; HBSS (1% BSA), 4°C, 1 h; natGa or natLu analogs; mean ± SD (n = 3)
# Procedure: One day (24h ± 2h) prior to all experiments with LNCaP cells, the cultivated cells were harvested using a mixture of trypsin/ethylendiaminetetraacetate (0.05%/ 0.02%) and phosphate buffered saline and centrifuged. After centrifugation, the supernatant was disposed and the cell pellet resuspended in culture medium. Afterwards, cells were counted with a hemocytometer (Neubauer) and seeded in 24-well plates.
# Cells were incubated in HBSS (1% BSA) at 4°C for 1 h.
# [6] = lipophilicity (logP), shake flask method; type: physicochemical; conditions: n-octanol and PBS (pH 7.4); radiolabeled compounds; mean ± SD (n = 6)
# Procedure: The logP values were determined as described (Weineisen, M., et al., Synthesis and preclinical evaluation of DOTAGA-conjugated PSMA ligands for functional imaging and endoradiotherapy of prostate cancer. EJNMMI research, 2014. 4(1): p. 1). The experimental details are described in the supplementary info.
# The determination of the logP was used to assess lipophilicity. The values for the respective radiolabeled compounds from Table 2 were obtained using the shake flask method (n = 6) in n-octanol and PBS (pH 7.4). […] For all compounds, the respective ^177Lu-labeled analog was more lipophilic than the ^68Ga-labeled counterpart.
# Procedure for human blood samples: Separation of the different blood cells was accomplished by stepwise centrifugation. Erythrocytes were gained after centrifugation at 700 g (1,400 rpm, Biofuge 15, Heraus Sepatech, Osterode, Germany) for 5 min and the pellet was rinsed with 500 µL of ice-cold PBS and again centrifuged. Leukocytes were gained by combination of the supernatant and subsequent centrifugation at 3,100 g (6,200 rpm) with a further washing step with 500 µL of ice-cold PBS and repeated centrifugation. The activities of the pellets (erythrocytes and leukocytes) and the supernatant were measured in a γ-counter. PSMA specific binding was determined by co-incubation with PMPA solution (100 µM).
# In addition, 1.0 MBq of the used radiolabeled PSMA ligands were incubated in the presence of PMPA solution (100 µM) to differentiate between specific and unspecific binding.
IC50 (PSMA [5]) [nM],logP [6],Substance,Internalization [%] (LNCaP cells [1]),HSA [%] [2] [%],other results
,,PSMA I&T Galactose [compound 13],18.7% ± 4.1%,,
,,[^68Ga]PSMA I&T [^nat/68Ga-18],,48.7,IC50 (PSMA [3]): 9.4 ± 2.9 nM; Internalization [%] (LNCaP cells [4]): 59.2 ± 1.7%; Internalization [%] (LNCaP cells [4]; listed as [^68Ga]PSMA I&T): 59.2% ± 1.7%; tumor accumulation (LNCaP tumor xenografts): 5.8 ± 0.3 %ID/mL
,,[^177Lu]PSMA I&T [^nat/177Lu-18],,78.6,Binding to erythrocytes (human blood samples; simultaneous incubation with PMPA (100 µM)): 29.2%; leukocyte fraction (human blood samples; with PMPA (100 µM)): 0.2%; supernatant (human blood samples; with PMPA (100 µM)): 70.7%; Binding to erythrocytes (human blood samples; without PMPA): 38.9%; leukocyte fraction (human blood samples; without PMPA): 0.1%; supernatant (human blood samples; without PMPA): 61.1%; IC50 (PSMA [3]): 7.9 ± 2.4 nM; Internalization [%] (LNCaP cells [4]): 75.5 ± 1.6%
,-4.15 ± 0.07,[^natGa]PSMA I&T Galactose [^nat/68Ga-13],18.7 ± 4.1%,7.7,
7.1 ± 0.3,-4.01 ± 0.08,[^natGa]PSMA I&T Mannose [^nat/68Ga-14],8.4 ± 0.2%,,
5.8 ± 0.6,-3.95 ± 0.12,[^natLu]PSMA I&T Galactose [^nat/177Lu-13],60.2 ± 2.8%,23.3,internalized fraction of total applied activity (LNCaP cells [1]): 11.3%
5.9 ± 0.5,-3.85 ± 0.04,[^natLu]PSMA I&T Mannose [^nat/177Lu-14],35.3 ± 2.9%,,

Substance,IC50 (PSMA [5]) [nM],logP [6],Internalization [%] (LNCaP cells [1]),HSA [%] [2] [%],other results
[^natGa]PSMA I&T Cellubiose [^nat/68Ga-15],10.8 ± 1.7,,4.0 ± 0.6%,,internalized fraction of total applied activity (LNCaP cells [1]): 1.3%
[^natLu]PSMA I&T Cellobiose [^nat/177Lu-15],12.5 ± 2.3,-4.04 ± 0.1,22.3 ± 1.2%,19.9,
